Where two headings read alike, the source gives them in different places.
Assays:
[1] = system: A549 cells; test: Prodrug safety dose-response cell viability (PrestoBlue), A549; format: cell-based; conditions: Homo sapiens, 120 h, 5 days, no catalyst
Procedure: (§1) These cell lines were selected as these are primary malignancies against which the parental drugs are currently prescribed.
(§2) The toxicities of each active agent and prodrugs were compared by performing dose-response studies. […] Cell viability was analysed by fluoresce intensity (λex=540 nm; λem=590 nm) after 60-90 min incubation with PrestoBlue™ Reagent (Life Technologies).

[2] = system: T98 cells; test: Prodrug safety dose-response cell viability (PrestoBlue), T98; format: cell-based; conditions: Homo sapiens, 120 h, 5 days, no catalyst
Procedure: as §1, §2

[3] = system: U87G cells; test: Prodrug safety dose-response cell viability (PrestoBlue), U87G; format: cell-based, human; conditions: U87G cells, 5 days, no catalyst, read-out: EC50 (cell viability)
Procedure: as §1, §2

[4] = system: A549 cells; test: BOOM conversion: prodrug + metal resins in cell culture, cell viability, A549; format: cell-based, human; conditions: Pd0-resin 1 mg/mL, 100 μM Vorinostat prodrugs, 1 μM Doxorubicin prodrugs, 0.3 μM Panobinostat prodrug
Procedure: Cell viabilities for each prodrug provided as a combination with palladium is presented in FIG. 3 and gold is presented in FIG. 33 in the right of each set of two bars. […] Cells were incubated in tissue culture media containing 0.1% (v/v) DMSO and: Pd^0, Au, or Pd/Au-resins (1 mg/mL, negative control); 100 μM of each prodrug (negative control); and Pd^0, Au, or Pd/Au-resins (1 mg/mL)+100 μM of each prodrug (BOOM reaction assay). Cells incubated in 0.1% (v/v) DMSO in media were used as untreated cell control.
(§3) Following 5 days treatment, cells were incubated with PrestoBlue™ Cell Viability Reagent (Life Technologies) for 60-90 min. Fluorescence intensity values were related to the untreated cells (100% cell viability). […] Cells incubated in 0.1% (v/v) DMSO in media were used as untreated cell control.
(§4) Cell viabilities for each prodrug provided as a combination with palladium is presented in FIG. 7 in the right of each set of two bars. Data for prodrug in the absence of palladium catalyst is also provided (the left bar of each set of two bars) for comparison along with negative controls (from left to right: DMSO, Pd^0 and Doxorubicin). Cells were incubated in tissue culture media containing 0.1% (v/v) DMSO and: Pd^0-resins (1 mg/mL, negative control); 1 μM of each prodrug (negative control); and Pd^0-resins (1 mg/mL)+1 μM of each prodrug (BOOM reaction assay). Cells incubated in 0.1% (v/v) DMSO in media were used as untreated cell control.
(§5) Following 5 days treatment, cells were incubated with PrestoBlue™ Cell Viability Reagent (Life Technologies) for 90 min. Fluorescence intensity values were related to the untreated cells (100% cell viability). Data are provided in FIG. 8 for cells incubated in tissue culture media containing 0.1% (v/v) DMSO and: Pd^0-resins (1 mg/mL, negative control); 0.3-3 μM of Doxorubicin prodrug for A549 and DU145 cell lines, 0.1-1 μM of Doxorubicin prodrug for T98 cell line (negative control); 0.3-3 μM of Doxorubicin for A549 and DU145 cell lines, 0.1-1 μM of Doxorubicin for T98 cell line (positive control); and Pd^0-resin (1 mg/mL)+Doxorubicin prodrug (BOOM reaction assay). Cells incubated in 0.1% (v/v) DMSO in media were used as untreated cell control.
as §4, with “21” for “7”, “panobinostat).” for “Doxorubicin).”
(§6) The toxigenic effect as a result of in situ generation of parental drug in cell culture was determined by incubating all cells in tissue culture media containing 0.1% (v/v) DMSO and a) Pd^0, Au, or Pd/Au-resin (1 mg/mL for all cells tested, negative control); b) prodrug (negative control); or c) Pd^0, Au, or Pd/Au-resin (1 mg/mL for all cells)+prodrug (reaction assay). Cells incubated in 0.1% (v/v) DMSO in media was used as an untreated cell reference standard (100% viability). A PrestoBlue® cell viability assay as described above was carried out and fluorescent intensities compared to the untreated cell control.
(§7) A dose response study was performed for each cell line keeping the quantity of Pd^0 resin constant (0.8 mg/mL for U87G and 1 mg/mL for the rest of cell lines). All cells were plated in Dulbecco's Modified Eagle Media (DMEM) supplemented with serum (10% FBS) and L-glutamine (2 mM). […]

[5] = system: T98 cells; test: BOOM conversion: prodrug + Pd0-resins in cell culture, cell viability, T98; format: cell-based, human; conditions: Pd0-resin 1 mg/mL, 1 μM Doxorubicin prodrugs
Procedure: as §3, §4, §5, §6, §7

[6] = system: DU145 cells; test: BOOM conversion: prodrug + Pd0-resins in cell culture, cell viability, DU145; format: cell-based, human; conditions: Pd0-resin 1 mg/mL, 1 μM Doxorubicin prodrugs
Procedure: as §4
as §5, with “Cells incubated in 0.1% (v/v) DMSO in media were used as untreated cell control.” left out
(§8) The toxigenic effect as a result of in situ generation of parental drug in cell culture was determined by incubating all cells in tissue culture media containing 0.1% (v/v) DMSO and a) Pd^0, Au, or Pd/Au-resin (1 mg/mL for all cells tested, negative control); b) prodrug (negative control); or c) Pd^0, Au, or Pd/Au-resin (1 mg/mL for all cells)+prodrug (reaction assay). […]
(§9) A dose response study was performed for each cell line keeping the quantity of Pd^0 resin constant (0.8 mg/mL for U87G and 1 mg/mL for the rest of cell lines). […] Fluorescence intensity values (detected using a PerkinElmer EnVision 2101 multilabel reader with excitation filter at 540 nm and emissions filter at 590 nm) were determined relative to the untreated cell control.

[7] = system: MiaPaCa2 cells; test: BOOM conversion: prodrug + Pd0-resins in cell culture, cell viability, MiaPaCa2; format: cell-based, human; conditions: Pd0-resin 1 mg/mL, 0.03 μM Gemcitabine prodrugs
Procedure: as §4, with “FIG. 10” for “FIG. 7”, “and Gemcitabine).” for “and Doxorubicin).”, “control); 0.03” for “control); 1”, “(1 mg/mL)+0.03” for “(1 mg/mL)+1”
Following 5 days treatment, cells were incubated with PrestoBlue™ Cell Viability Reagent (Life Technologies) for 90 min. Fluorescence intensity values were related to the untreated cells (100% cell viability). Data are provided in FIG. 11 for cells incubated in tissue culture media containing 0.1% (v/v) DMSO and: Pd^0-resins (1 mg/mL, negative control); 0.003-0.3 μM of pPOBC-Gem (negative control); 0.003-0.3 μM of Gemcitabine (positive control); and Pd^0-resin (1 mg/mL)+pPOBC-Gem (BOOM reaction assay). Cells incubated in 0.1% (v/v) DMSO in media were used as untreated cell control.
as §8, with “assay). Cells incubated in 0.1% (v/v) DMSO in media was used as an untreated cell reference standard (100% viability).” for “assay).”
as §9

[8] = system: MiaPaCa2 cells; test: Prodrug safety dose-response cell viability (PrestoBlue), MiaPaCa2; format: cell-based, human; conditions: Homo sapiens, MIA PaCa-2, 120 h, 5 days, no catalyst
Procedure: as §1, §2

O=C(CCCCCCC(=O)Nc1ccccc1)NOCc1ccccc1 [Benzyl-Vor, Benzyl-Vorinostat]
EC50 [1]: > 500 µM
EC50 [2]: > 500 µM
EC50 ([3]; Homo sapiens, 120 h): > 500 µM
toxigenic effect of prodrug + Pd0 resins [4]: only low levels of toxicity

COc1cccc2c1C(=O)c1c(O)c3c(c(O)c1C2=O)C[C@@](O)(C(=O)CO)C[C@@H]3OC1C[C@H](NC(=O)OCc2ccccc2)[C@H](O)[C@H](C)O1 (stereo partly shown) [Cbz-Dox, Carboxybenzyl Doxorubicin]
toxigenic effect of prodrug + Pd0 resins [5]: only low levels of toxicity
toxigenic effect of prodrug + Pd0 resins [6]: only low levels of toxicity
toxigenic effect of prodrug + Pd0 resins [4]: only low levels of toxicity

O=C(Nc1ccn(C2OC(CO)C(O)C2(F)F)c(=O)n1)OCc1ccccc1 (stereo not shown) [Cbz-Gem, reference compound]
toxigenic effect of prodrug + Pd0 resins [7]: only low levels of toxicity

COc1cc([C@@H]2c3cc4c(cc3[C@@H](O[C@@H]3O[C@@H]5CO[C@@H](C)O[C@H]5[C@H](O)[C@H]3O)[C@H]3COC(=O)[C@H]23)OCO4)cc(OC)c1O [Etoposide, reference compound]
EC50 ([3]; Homo sapiens, 120 h): 4.97 µM

Nc1ccn([C@@H]2O[C@H](CO)[C@@H](O)C2(F)F)c(=O)n1 [Gemcitabine, reference compound]
EC50 [8]: 0.013 µM

C#CCOc1ccc(CONC(=O)/C=C/c2ccc(CNCCc3c(C)[nH]c4ccccc34)cc2)cc1 [POB-Panob, Propargyloxybenzyl-Panobinostat]
EC50 [1]: 0.758 µM
toxigenic effect of prodrug + Pd0 resins [4]: strong toxigenic effect

Cc1[nH]c2ccccc2c1CCNCc1ccc(/C=C/C(=O)NO)cc1 [Panobinostat, reference compound]
EC50 [1]: 0.016 µM

CCc1c2c(nc3ccc(O)cc13)-c1cc3c(c(=O)n1C2)COC(=O)[C@]3(O)CC [SN-38, 10-Hydroxy-7-ethylcamptothecin, reference compound]
EC50 [3]: 0.0246 µM

O=C(CCCCCCC(=O)Nc1ccccc1)NO [Vorinostat, reference compound]
EC50 [1]: 4.85 µM
EC50 [2]: 12.4 µM

C#CCOc1ccccc1COC(=O)N[C@H]1CC(O[C@H]2C[C@](O)(C(=O)CO)Cc3c(O)c4c(c(O)c32)C(=O)c2c(OC)cccc2C4=O)O[C@@H](C)[C@H]1O (stereo partly shown) [oPOBC-Dox, 2-proparglyoxybenzylcarbamoyl Doxorubicin]
toxigenic effect of prodrug + Pd0 resins [5]: strong toxigenic effect
toxigenic effect of prodrug + Pd0 resins [6]: strong toxigenic effect
toxigenic effect of prodrug + Pd0 resins [4]: strong toxigenic effect

C#CCOc1ccc(COC(=O)N[C@H]2CC(O[C@H]3C[C@](O)(C(=O)CO)Cc4c(O)c5c(c(O)c43)C(=O)c3c(OC)cccc3C5=O)O[C@@H](C)[C@H]2O)cc1 (stereo partly shown) [pPOBC-Dox, 4-proparglyoxybenzylcarbamoyl Doxorubicin]
toxigenic effect of prodrug + Pd0 resins [5]: strong toxigenic effect
toxigenic effect of prodrug + Pd0 resins [6]: strong toxigenic effect
toxigenic effect of prodrug + Pd0 resins [4]: strong toxigenic effect

Source: patent publication US20200289554A1, “BIOORTHOGONAL COMPOUNDS COMPRISING A PROPARGYL GROUP FOR TREATING CANCER” (THE UNIVERSITY COURT OF THE UNIVERSITY OF EDINBURGH, priority 2016, published 2020)
